Results on 22 compounds are retold here after patent publication US11584747B2, “Substituted pyridopyrimidinonyl compounds useful as T cell activators” (BRISTOL-MYERS SQUIBB COMPANY, priority 2019, dated 2023).

pEC50, pIC50: −log10 of the molar value. Like-named read-outs stand apart in the source and are kept apart here.

One assay deals with human DGKα (Homo sapiens (Human), UniProt P23743). The assay is described as follows: DGKα ADPGLO assay (detergent/lipid micelle substrate). The assay is classed as biochemical. The protocol: DGK Alpha ADPGLO (Truncated) IC50 (uM)
Sequence of human DGKα (P23743 whole entry, looked up, the tested form may be a part): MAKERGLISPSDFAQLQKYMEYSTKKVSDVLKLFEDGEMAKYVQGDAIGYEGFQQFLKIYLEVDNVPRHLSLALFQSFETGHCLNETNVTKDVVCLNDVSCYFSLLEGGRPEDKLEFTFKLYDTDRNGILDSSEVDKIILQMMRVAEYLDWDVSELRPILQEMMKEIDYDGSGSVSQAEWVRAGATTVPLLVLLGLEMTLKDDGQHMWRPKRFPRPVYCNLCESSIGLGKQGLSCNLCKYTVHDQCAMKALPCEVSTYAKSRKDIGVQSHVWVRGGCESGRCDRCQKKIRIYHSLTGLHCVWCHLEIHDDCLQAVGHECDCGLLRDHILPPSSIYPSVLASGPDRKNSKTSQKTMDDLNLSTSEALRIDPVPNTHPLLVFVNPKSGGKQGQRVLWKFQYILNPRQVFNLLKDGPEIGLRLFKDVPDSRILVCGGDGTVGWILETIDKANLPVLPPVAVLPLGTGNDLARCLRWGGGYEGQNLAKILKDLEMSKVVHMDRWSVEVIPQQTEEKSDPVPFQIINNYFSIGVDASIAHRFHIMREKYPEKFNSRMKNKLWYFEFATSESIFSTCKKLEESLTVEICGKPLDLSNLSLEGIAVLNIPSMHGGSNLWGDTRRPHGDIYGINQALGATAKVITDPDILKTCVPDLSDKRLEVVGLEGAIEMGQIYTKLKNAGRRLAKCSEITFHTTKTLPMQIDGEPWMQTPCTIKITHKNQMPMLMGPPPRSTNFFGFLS
The detergent/lipid micelle was prepared by combining 15 g phosphatidylserine (Avanti 840035P) and 1 g diacylglycerol (8008110) and dissolving into 150 mL chloroform in a 2 L round bottom flask. Chloroform was removed under high vacuum by rotary evaporation. […] The lipid/detergent solution was split into 5 mL aliquots and stored at −80° C.
For orientation: ADP-Glo turns the ADP formed in a reaction into a luminescent signal.

The test system of assay [1] is human venous whole blood (IFN-γ). In words: Human whole blood IFN-γ assay. It counts as cell-based. Particulars: whole blood, normalized to 3 μM reference compound as 100% activation, read-out: IFN-γ Whole Blood Normalized EC50. The protocol:
Human venous whole blood (22.5 μL per well), obtained from healthy donors, was pre-treated with compounds for one hour at 37° C. in a humidified 95% air/5% CO2 incubator. The blood was stimulated with 2.5 μL anti-human CD3 and anti-CD28 mAb at a final concentration of 1 μg/mL each for 24 hours at 37° C. IFN-γ in the supernatants was measured using AlphLISA kit (Cat #AL217).

Another assay has as its target human DGKζ (Homo sapiens (Human), UniProt Q13574). In words: DGKζ LIPGLO assay (extruded liposome substrate, ADP-Glo luminescence). It counts as biochemical. Particulars: liposome (LIPGLO) assay; read-out: DGK zeta (liposome assay) IC50.
Where [2] appears, read: truncated DGK alpha, read-out: DGK alpha ADPGLO (Truncated) IC50.
Setting [3] is: ADPGLO assay, read-out: DGK alpha ADPGLO IC50.

Sequence of human DGKζ (Q13574 other isoform, or with tags, fused parts or gaps): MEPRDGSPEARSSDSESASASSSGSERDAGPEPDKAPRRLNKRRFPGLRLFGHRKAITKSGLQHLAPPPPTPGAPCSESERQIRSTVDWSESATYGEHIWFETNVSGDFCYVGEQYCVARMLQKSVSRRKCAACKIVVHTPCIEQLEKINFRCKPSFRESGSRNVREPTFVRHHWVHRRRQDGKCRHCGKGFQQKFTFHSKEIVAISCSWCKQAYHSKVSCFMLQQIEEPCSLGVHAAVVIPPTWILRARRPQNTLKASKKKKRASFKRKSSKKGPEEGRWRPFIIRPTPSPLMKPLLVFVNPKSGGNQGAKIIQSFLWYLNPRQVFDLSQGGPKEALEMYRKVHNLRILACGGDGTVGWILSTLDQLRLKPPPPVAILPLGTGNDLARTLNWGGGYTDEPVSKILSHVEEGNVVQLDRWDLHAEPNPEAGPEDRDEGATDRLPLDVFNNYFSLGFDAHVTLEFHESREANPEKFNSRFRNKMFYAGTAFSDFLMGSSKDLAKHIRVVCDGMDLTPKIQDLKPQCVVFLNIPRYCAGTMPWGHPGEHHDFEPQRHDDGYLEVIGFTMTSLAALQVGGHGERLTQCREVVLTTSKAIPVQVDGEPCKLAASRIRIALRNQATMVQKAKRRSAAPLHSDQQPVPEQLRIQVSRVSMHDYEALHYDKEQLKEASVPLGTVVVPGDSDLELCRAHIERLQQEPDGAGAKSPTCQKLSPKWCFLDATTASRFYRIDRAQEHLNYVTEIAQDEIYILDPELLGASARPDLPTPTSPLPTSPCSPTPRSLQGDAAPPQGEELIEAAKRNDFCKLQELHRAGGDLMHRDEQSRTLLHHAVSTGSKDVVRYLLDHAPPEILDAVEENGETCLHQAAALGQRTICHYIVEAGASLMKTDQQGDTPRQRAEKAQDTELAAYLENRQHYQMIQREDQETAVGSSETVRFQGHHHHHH

As to `CCCC(c1ccc(C(F)(F)F)cc1)N1C[C@H](CC)N(c2nc(=O)n(C)c3ccc(C#N)nc23)C[C@H]1CC` (stereo partly drawn) [Example 243, 4-((2S,5R)-2,5-Diethyl-4-(1-(4-(trifluoromethyl)phenyl)butyl)piperazin-1-yl)-1-methyl-2-oxo-1,2-dihydropyrido[3,2-d]pyrimidine-6-carbonitrile], the pIC50 at human DGKα (setting [2]) is 8.22. Also, the pEC50 in assay [1] was 7.23.

With `CC[C@H]1CN(C(C)c2ccc(CN3CCC(F)(F)CC3)cc2)[C@H](CC)CN1c1nc(=O)n(C)c2ccc(C#N)nc12` (stereo partly drawn) [Example 278, 4-((2S,5R)-4-(1-(4-((4,4-difluoropiperidin-1-yl)methyl)phenyl)ethyl)-2,5-diethylpiperazin-1-yl)-1-methyl-2-oxo-1,2-dihydropyrido[3,2-d]pyrimidine-6-carbonitrile], at human DGKα (setting [2]), the pIC50 is 5.54. In assay [1] (Homo sapiens), the pEC50 was 5.94.

Take `CC[C@@H]1CN(c2nc(=O)n(C)c3ccc(C#N)nc23)[C@@H](C)CN1C(C)c1ccc(C(F)(F)F)c(CN(C)C)c1` (stereo partly drawn) [Example 352, 4-((2S,5R)-4-(1-(3-((dimethylamino)methyl)-4-(trifluoromethyl)phenyl)ethyl)-5-ethyl-2-methylpiperazin-1-yl)-1-methyl-2-oxo-1,2-dihydropyrido[3,2-d]pyrimidine-6-carbonitrile]: the pIC50 is 5.57 on human DGKζ and 4.83 on human DGKα (setting [3]).

As to `CC[C@@H]1CN(c2nc(=O)n(C)c3ccc(C#N)nc23)[C@@H](C)CN1C(C)c1ccc(CNC(=O)OC)cc1` (stereo partly drawn) [Example 359, Methyl (4-(1-((2R,5S)-4-(6-cyano-1-methyl-2-oxo-1,2-dihydropyrido[3,2-d]pyrimidin-4-yl)-2-ethyl-5-methylpiperazin-1-yl)ethyl)benzyl)carbamate], the pIC50 at human DGKζ is 6.66; on human DGKα (setting [3]), 7.62.

Take `CC[C@@H]1CN(c2nc(=O)n(C)c3ccc(C#N)nc23)[C@@H](C)CN1C(C)c1ccc(CNC(=O)OC)cc1` (stereo partly drawn) [Example 360, Methyl (4-(1-((2R,5S)-4-(6-cyano-1-methyl-2-oxo-1,2-dihydropyrido[3,2-d]pyrimidin-4-yl)-2-ethyl-5-methylpiperazin-1-yl)ethyl)benzyl)carbamate]: the values for the negative-log IC50 (pIC50) on human DGKζ and on human DGKα (setting [3]) were 6.18 and 6.82, respectively.

As to `CC[C@@H]1CN(c2nc(=O)n(C)c3ccc(C#N)nc23)[C@@H](C)CN1C(c1nc(C2CC2)no1)C(C)C` (stereo partly drawn) [Example 366, 4-((2S,5R)-4-(1-(3-cyclopropyl-1,2,4-oxadiazol-5-yl)-2-methylpropyl)-5-ethyl-2-methylpiperazin-1-yl)-1-methyl-2-oxo-1,2-dihydropyrido[3,2-d]pyrimidine-6-carbonitrile], the negative-log IC50 (pIC50) at human DGKζ is 6.21; on human DGKα (setting [3]), 5.84.

With `CCC(c1ccc(C2CC2)cc1)N1C[C@H](C)N(c2nc(=O)n(C)c3ccc(C#N)nc23)C[C@H]1C` (stereo partly drawn) [Example 378, 4-((2S,5R)-4-(1-(4-cyclopropylphenyl)propyl)-2,5-dimethylpiperazin-1-yl)-1-methyl-2-oxo-1,2-dihydropyrido[3,2-d]pyrimidine-6-carbonitrile], the pIC50 at human DGKζ is 6.82; on human DGKα (setting [3]) it was 6.80.

On to `CCC(c1ccc(C2CC2)cc1)N1C[C@H](C)N(c2nc(=O)n(C)c3ccc(C#N)nc23)C[C@H]1C` (stereo partly drawn) [Example 379, 4-((2S,5R)-4-(1-(4-cyclopropylphenyl)propyl)-2,5-dimethylpiperazin-1-yl)-1-methyl-2-oxo-1,2-dihydropyrido[3,2-d]pyrimidine-6-carbonitrile], for which the negative-log IC50 (pIC50) was 5.44 on human DGKζ and 6.35 at human DGKα (setting [3]).

`CCC(c1ccc(C2CC2)cc1F)N1C[C@H](C)N(c2nc(=O)n(C)c3ccc(C#N)nc23)C[C@H]1C` (stereo partly drawn) [Example 380, 4-((2S,5R)-4-(1-(4-cyclopropyl-2-fluorophenyl)propyl)-2,5-dimethylpiperazin-1-yl)-1-methyl-2-oxo-1,2-dihydropyrido[3,2-d]pyrimidine-6-carbonitrile]: the pIC50 on human DGKζ is 6.74; on human DGKα (setting [3]) it was 7.54.

Take `CCC(c1ccc(C2CC2)cc1F)N1C[C@H](C)N(c2nc(=O)n(C)c3ccc(C#N)nc23)C[C@H]1C` (stereo partly drawn) [Example 381, 4-((2S,5R)-4-(1-(4-cyclopropyl-2-fluorophenyl)propyl)-2,5-dimethylpiperazin-1-yl)-1-methyl-2-oxo-1,2-dihydropyrido[3,2-d]pyrimidine-6-carbonitrile]: the results for the pIC50 on human DGKζ and on human DGKα (setting [3]) were 5.47 and 6.07, respectively.

Turning to `CCOc1ccc2c(n1)c(N1C[C@@H](CC)N(C(CC)c3ccc(C(F)(F)F)cc3)C[C@@H]1CC)nc(=O)n2C` (stereo partly drawn) [Example 437, 4-((2S,5R)-2,5-diethyl-4-(1-(4-(trifluoromethyl)phenyl)propyl)piperazin-1-yl)-6-ethoxy-1-methylpyrido[3,2-d]pyrimidin-2(1H)-one], the pIC50 at human DGKζ and at human DGKα (setting [3]) was 3.60 throughout.

In the case of `CCOc1ccc2c(n1)c(N1C[C@@H](CC)N(C(CC)c3ccc(C(F)(F)F)cc3)C[C@@H]1CC)nc(=O)n2C` (stereo partly drawn) [Example 438, 4-((2S,5R)-2,5-diethyl-4-(1-(4-(trifluoromethyl)phenyl)propyl)piperazin-1-yl)-6-ethoxy-1-methylpyrido[3,2-d]pyrimidin-2(1H)-one], the pIC50 was 3.60 at human DGKζ and 3.76 on human DGKα (setting [3]).

As for `CC[C@@H]1CN(c2nc(=O)n(C)c3ccc(C(F)F)nc23)[C@@H](C)CN1C(C)c1ccc(C(F)(F)F)cc1` (stereo partly drawn) [Example 442, 6-(difluoromethyl)-4-((2S,5R)-5-ethyl-2-methyl-4-(1-(4-(trifluoromethyl)phenyl)ethyl)piperazin-1-yl)-1-methylpyrido[3,2-d]pyrimidin-2(1H)-one], the pIC50 was 6.04 at human DGKζ and 6.55 on human DGKα (setting [3]).

On to `CC[C@H]1CN(C(C)c2ccc(C(F)(F)F)cc2)[C@H](CC)CN1c1nc(=O)n(C)c2ccc(OC(F)F)nc12` (stereo partly drawn) [Example 444, 4-((2S,5R)-2,5-Diethyl-4-(1-(4-(trifluoromethyl)phenyl)ethyl)piperazin-1-yl)-6-(difluoromethoxy)-1-methylpyrido[3,2-d]pyrimidin-2(1H)-one], for which the negative-log IC50 (pIC50) on human DGKζ was 6.74; at human DGKα (setting [3]), 6.40.

As to `CCC(C1CC1)N1C[C@H](C)N(c2nc(=O)n(C)c3ccc(C#N)nc23)C[C@H]1C` (stereo partly drawn) [Example 453, 4-((2S,5R)-4-(1-cyclopropylpropyl)-2,5-dimethylpiperazin-1-yl)-1-methyl-2-oxo-1,2-dihydropyrido[3,2-d]pyrimidine-6-carbonitrile], the negative-log IC50 (pIC50) at human DGKζ was 4.10; at human DGKα (setting [3]), 3.67.

For `CCC(C1CC1)N1C[C@H](C)N(c2nc(=O)n(C)c3ccc(C#N)nc23)C[C@H]1C` (stereo partly drawn) [Example 454, 4-((2S,5R)-4-(1-cyclopropylpropyl)-2,5-dimethylpiperazin-1-yl)-1-methyl-2-oxo-1,2-dihydropyrido[3,2-d]pyrimidine-6-carbonitrile], the negative-log IC50 (pIC50) on human DGKζ was 4.54; on human DGKα (setting [3]), 4.85.

On to `CCC(C1CC1)N1C[C@H](C)N(c2nc(=O)n(C)c3ccc(C#N)nc23)C[C@H]1C` (stereo partly drawn) [Example 455, 4-((2S,5R)-4-(1-cyclopropylpropyl)-2,5-dimethylpiperazin-1-yl)-1-methyl-2-oxo-1,2-dihydropyrido[3,2-d]pyrimidine-6-carbonitrile], for which the pIC50 on human DGKζ is 5.12; on human DGKα (setting [3]) it was 5.29.

As to `CCC(C1CC(F)(F)C1)N1C[C@H](C)N(c2nc(=O)n(C)c3ccc(C#N)nc23)C[C@H]1C` (stereo partly drawn) [Example 456, 4-((2S,5R)-4-(1-(3,3-difluorocyclobutyl)propyl)-2,5-dimethylpiperazin-1-yl)-1-methyl-2-oxo-1,2-dihydropyrido[3,2-d]pyrimidine-6-carbonitrile], the negative logarithm of the IC50 (pIC50) at human DGKζ is 4.92; on human DGKα (setting [3]), 4.99.

Regarding `CCC(C1CC(F)(F)C1)N1C[C@H](C)N(c2nc(=O)n(C)c3ccc(C#N)nc23)C[C@H]1C` (stereo partly drawn) [Example 457, 4-((2S,5R)-4-(1-(3,3-difluorocyclobutyl)propyl)-2,5-dimethylpiperazin-1-yl)-1-methyl-2-oxo-1,2-dihydropyrido[3,2-d]pyrimidine-6-carbonitrile], the pIC50 is 5.98 on human DGKζ and 5.40 at human DGKα (setting [3]).

As to `CCC(C1CC(F)(F)C1)N1C[C@H](C)N(c2nc(=O)n(C)c3ccc(C#N)nc23)C[C@H]1C` (stereo partly drawn) [Example 458, 4-((2S,5R)-4-(1-(3,3-difluorocyclobutyl)propyl)-2,5-dimethylpiperazin-1-yl)-1-methyl-2-oxo-1,2-dihydropyrido[3,2-d]pyrimidine-6-carbonitrile], the pIC50 on human DGKζ is 5.19; at human DGKα (setting [3]) it was 5.11.

Regarding `CCC(C1CCC(F)(F)CC1)N1C[C@H](C)N(c2nc(=O)n(C)c3ccc(C#N)nc23)C[C@H]1C` (stereo partly drawn) [Example 459, 4-((2S,5R)-4-(1-(4,4-difluorocyclohexyl)propyl)-2,5-dimethylpiperazin-1-yl)-1-methyl-2-oxo-1,2-dihydropyrido[3,2-d]pyrimidine-6-carbonitrile], the figures for the negative-log IC50 (pIC50) on human DGKζ and at human DGKα (setting [3]) were 4.62 and 4.53, respectively.

For `CCC(C1CCC(F)(F)CC1)N1C[C@H](C)N(c2nc(=O)n(C)c3ccc(C#N)nc23)C[C@H]1C` (stereo partly drawn) [Example 460, 4-((2S,5R)-4-(1-(4,4-difluorocyclohexyl)propyl)-2,5-dimethylpiperazin-1-yl)-1-methyl-2-oxo-1,2-dihydropyrido[3,2-d]pyrimidine-6-carbonitrile], the negative logarithm of the IC50 (pIC50) is 4.92 on human DGKζ and 4.94 on human DGKα (setting [3]).

A word on the pIC50: it is −log10 of the IC50, conventionally taken in molar units. What is called pEC50 is the EC50 on a negative log10 scale, so that one unit is a factor of ten.
